Calls of active or inactive are those of the source. The rule behind the calls is not given here.
Experiment: modifiers of cytoskeleton assembly, confirmation, imaging, high-content imaging, retest and dose response (AID 1249);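 note: compound exposure lasted 24 h before fixation; plate controls were untreated cells for no effect and reference compound treated cells for full effect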
Conditions: cell-based imaging, cytoskeleton assembly phenotype, high content; at 2 µM; stronger effect = higher value
In the case of `COc1ccc(C(=O)c2c(C(F)(F)F)oc3c2C(=O)c2ccccc2C3=O)cc1`, the inhibition was -14.9% (inactive). In the case of `CCOC1=NC(C(=O)O)c2ccccc2/C(=C(/C)Cl)N1` (stereo unspecified), the inhibition was -4.3% (inactive). With `CSC1=NCCN1C(=O)Cc1ccc(Cl)cc1` the inhibition was 3% (inactive). For `CN1CCc2nc3sc(C#N)c(N)c3c(-c3cccs3)c2C1`, the inhibition was 5.3% (inactive). With `Cc1nn(-c2cc(C)c3ccccc3n2)c2c1C1C(C2)C1(C)C` (stereo unspecified) the inhibition was 3.3% (inactive). With `COc1ccc(OC)c2sc(NC(=O)CCS(=O)(=O)c3ccccc3)nc12` the inhibition was -5.2% (inactive). With `Cc1ccc(OCc2ccoc2C(=O)O)cc1C` the inhibition was -8.8% (inactive). For `CCOc1ccccc1N1C(=O)NC(=O)C(CCc2ccncc2)(CCc2ccncc2)C1=O`, the inhibition was -4.8% (inactive). For `COc1cc(/C=C(/C#N)C(=O)NCCc2c[nH]c3ccccc23)ccc1OCc1ccccc1F`, the inhibition was 2.3% (inactive). For `OCCNCC(O)Cn1ccc2ccccc21` (stereo unspecified), the inhibition was -2.9% (inactive). In the case of `COC(=O)c1[nH]c2cc(OC)ccc2c1NC(=O)CN1CCC(C(N)=O)(N2CCCCC2)CC1`, the inhibition was 3.6% (inactive). With `C/C(=C\C(=O)c1cccnc1)Nc1ccc(C)c(C)c1` the inhibition was 1.3% (inactive). For `O=C(c1ccc(Cl)cc1)N1CCCOC1`, the inhibition was -2% (inactive). In the case of `N#Cc1c(NCc2ccccc2)ccnc1NCc1cccnc1`, the inhibition was 1.2% (inactive). For `CCCCn1cnc2c1c(=O)[nH]c(=O)n2CCCC`, the inhibition was -11.3% (inactive). In the case of `CCC(=O)c1c[nH]c(C(=O)NCC2CCCO2)c1` (stereo unspecified), the inhibition was -0.5% (inactive). In the case of `COc1ccccc1-n1cnc2cc(NCc3ccco3)ccc21`, the inhibition was 10.7% (inactive). For `CCOc1ccc(-n2cc(C(=O)NCc3ccco3)c3cc(OC)c(OC)cc3c2=O)cc1`, the inhibition was -5.9% (inactive). With `CCCCN(C)CCCNC(=O)c1ccc2c(c1)NC(=O)C(N1CCOCC1)S2` (stereo unspecified) the inhibition was 5.4% (inactive). In the case of `Cc1cccnc1N(C(=O)Nc1ccccc1)C1=NCC(C)(C)S1`, the inhibition was -10.2% (inactive). For `COc1ccccc1-n1cnc2cc(C(=O)NCC3CCCO3)ccc21` (stereo unspecified), the inhibition was 13.3% (inactive). In the case of `COc1cc2c(O)c3c(c(-c4ccc5c(c4)OCO5)c2cc1OC)C(=O)OC3`, the inhibition was 1.5% (inactive). For `O=C(CCCCCN1C(=O)c2ccccc2C1=O)Nc1nccs1`, the inhibition was 8.8% (inactive). In the case of `OCCN=C(c1ccccc1)C12CN3CN(CN(C3)C1)C2`, the inhibition was -2.8% (inactive). In the case of `Oc1ccc(Nc2nc3ccccc3nc2Nc2ccc(O)cc2)cc1`, the inhibition was -1.9% (inactive). With `NC1=CC(=O)c2cccc3cccc1c23` the inhibition was -0.4% (inactive). For `O=C1CC(N2CCN(Cc3ccc4c(c3)OCO4)CC2)C(=O)N1Cc1ccc(N2CCCC2=O)cc1` (stereo unspecified), the inhibition was -1.8% (inactive). For `O=C(Nc1ccccc1)/C(=C\c1ccc2c(c1)OCO2)NC(=O)c1ccco1`, the inhibition was -0.8% (inactive). With `COc1ccc(S(=O)(=O)n2ccc(-c3ccc(OCCN(C)c4ccccn4)cc3)n2)cc1` the inhibition was 11.9% (inactive). With `COc1ccc(C)cc1S(=O)(=O)Nc1cccc(SC)c1` the inhibition was 3.7% (inactive). With `O=c1[nH]c2cccnc2n1Cc1ccccc1` the inhibition was -3.8% (inactive). With `CC1Oc2ccccc2C=C1/C=C1/SC(N2CCOCC2)=NC1=O` (stereo unspecified) the inhibition was -1.2% (inactive). In the case of `CCOc1ccc(C2/C(=C(\O)c3c(C)[nH]c(C(=O)OC)c3C)C(=O)C(=O)N2CCN(C)C)cc1` (stereo unspecified), the inhibition was -9% (inactive). With `O=C(CN1CCN(c2nc(-c3ccc(F)cc3)cs2)CC1)Nc1ccc2c(c1)OCO2` the inhibition was -7.5% (inactive). In the case of `CCn1ccnc1C(O)c1cccc(OC)c1` (stereo unspecified), the inhibition was 6.1% (inactive). With `COc1cccc(OC)c1NC(=O)CN1CCC(NC(=O)c2cccc(F)c2)CC1` the inhibition was 0.4% (inactive). In the case of `CC(=O)c1c(C(C)=O)c(C)n(NC(=O)c2ccccc2O)c1C`, the inhibition was -15.8% (inactive). For `CC(=O)Cn1c(N2CCC(Cc3ccccc3)CC2)nc2c1c(=O)[nH]c(=O)n2C`, the inhibition was -5.3% (inactive). In the case of `CCCCOCCCNC(=O)c1cccs1`, the inhibition was -7.7% (inactive). In the case of `O=C(O)c1c[nH]c2ccc(S(=O)(=O)N3CCOCC3)cc12`, the inhibition was -7.4% (inactive). For `COc1ccc(-c2cc(C(F)(F)F)nc(S(=O)(=O)CCC(=O)N3CCOCC3)n2)cc1`, the inhibition was 0% (inactive). For `C=CCn1c(=O)c2c(nc3n2CC(C)CN3c2cccc(OC)c2)n(C)c1=O` (stereo unspecified), the inhibition was -8.1% (inactive). In the case of `C=CCn1c(N)c(C(=O)OCC(C)C)c2nc3ccccc3nc21`, the inhibition was -0.2% (inactive). In the case of `CCCc1nc(SCC(=O)Nc2nnc(CC)s2)c2c(C)c(C)sc2n1`, the inhibition was 8.7% (inactive). In the case of `Cc1cc(NC(=O)CSc2nc3ccccc3c(=O)n2C2CCCC2)no1`, the inhibition was 6.7% (inactive). In the case of `CCc1nc2oc3ccccc3c(=O)c2c(=O)n1CCOC`, the inhibition was 1.7% (inactive). In the case of `Cc1ccc(OCC(O)CNS(=O)(=O)c2ccccc2C(=O)N2CCCCC2)cc1` (stereo unspecified), the inhibition was -15.6% (inactive). In the case of `O=C(CCN1C(=O)C2C3C=CC(C3)C2C1=O)NCC1CCCO1` (stereo unspecified), the inhibition was 9.9% (inactive). For `O=[N+]([O-])c1ccc(O)c(/C=N/Nc2ccc(Cl)nn2)c1`, the inhibition was -6.8% (inactive). In the case of `CCOC(=O)c1cnc(-n2nc(C)cc2C)nc1N1CCOCC1`, the inhibition was 8.4% (inactive). In the case of `O=C(NCCO)C(c1ccccc1)c1ccccc1`, the inhibition was 3.5% (inactive). In the case of `Cc1cc(OCc2ccc(F)cc2)nc(-c2ccccc2O)n1`, the inhibition was 2.1% (inactive). For `NC(=S)N/N=C/c1ccc(-c2ccc(Cl)c(Cl)c2)o1`, the inhibition was -6.9% (inactive). With `Cc1ccccc1CN1C(=O)C2(OCCCO2)c2ccccc21` the inhibition was 3.7% (inactive). For `COC(=O)c1ccccc1NC(=O)Cn1c(-c2nonc2N)nc2ccccc21`, the inhibition was 4.2% (inactive). In the case of `CN1C(=O)N(C)C(=O)C2(Cc3ccccc3N3CCOCC32)C1=O` (stereo unspecified), the inhibition was -1.2% (inactive). In the case of `Fc1ccc(-n2[nH]nnc2=S)cc1N1CCCC1`, the inhibition was 10.6% (inactive). With `COc1ccc(S(=O)(=O)N2CCCC2C(=O)Nc2ccc(C)cc2)cc1` (stereo unspecified) the inhibition was 3.2% (inactive). In the case of `Cc1nn(CC(=O)Nc2ccc(C(=O)N(C)C)cc2)c(=O)c2ccccc12`, the inhibition was 4.3% (inactive). In the case of `CCCOC(=O)c1ccc(NC(=O)Oc2ccccc2)cc1`, the inhibition was -5.5% (inactive). For `COc1cccc(CNC(=O)C(=O)NCC2CCCO2)c1` (stereo unspecified), the inhibition was -16.1% (inactive). In the case of `CCOC(=O)C1=C(c2ccccc2)O/C(=C(/C#N)C(F)(F)F)S1`, the inhibition was 2.3% (inactive). In the case of `CCc1ccc(C(=O)/C=C/c2ccc([N+](=O)[O-])o2)cc1`, the inhibition was -3.9% (inactive). With `O=c1c2ccccc2nc(/C=C/c2ccc([N+](=O)[O-])o2)n1CCCO` the inhibition was -3.1% (inactive). In the case of `CCn1c(SCC(=O)N2CCN(c3cccc(Cl)c3)CC2)nc2ccccc2c1=O`, the inhibition was -3.6% (inactive). In the case of `COC(=O)COc1ccc(=O)n(-c2ccccc2)n1`, the inhibition was -8.8% (inactive). In the case of `O=C(NCc1ccncc1)c1ccc(Br)cc1`, the inhibition was 0.2% (inactive). For `CC(C)(C)NC(=O)C1N(c2cccnc2)C(=O)C2C(C(=O)Nc3ccccc3F)C3(C)C=CC21O3` (stereo unspecified), the inhibition was -29.5% (inactive). With `COc1ccc(-c2nnc(SCC(=O)NC3CCCCC3)o2)cc1OC` the inhibition was -3.7% (inactive). In the case of `CCn1c(Cc2ccccc2)nnc1SCC(=O)NC1CC1`, the inhibition was 10.7% (inactive). With `C/C=C/COC(=O)c1[nH]c2c(c1C)C(=O)CC(c1ccco1)C2` (stereo unspecified) the inhibition was -1.7% (inactive). With `COc1ccc(NC(=O)N(Cc2ccc3c(c2)OCO3)C2CC(=O)N(c3ccc(OC)cc3)C2=O)cc1` (stereo unspecified) the inhibition was -22.4% (inactive). For `Cc1ccc(C(=O)CSc2nsc(C)c2C#N)cc1`, the inhibition was -11.1% (inactive). For `Cc1nonc1NC(=O)CSc1nc(C2CCCCC2)nc2ccccc12`, the inhibition was -6.5% (inactive). For `O=C(CC(c1ccccc1)c1ccccc1)NCC1CCCO1` (stereo unspecified), the inhibition was -0.2% (inactive). In the case of `CCC(=O)N1c2ccc(S(=O)(=O)CCC(=O)N3CCn4c3nc3ccccc34)cc2CC1C` (stereo unspecified), the inhibition was 0% (inactive). For `COC(=O)C1C(=O)C2=C(CC1C)NC(=O)CC2c1cccc(C)c1` (stereo unspecified), the inhibition was -3.5% (inactive). For `COc1cc(/C=N/NC(=O)Nc2ccccc2)ccc1OCCOc1ccccc1C`, the inhibition was 3.1% (inactive). In the case of `Cn1c(CNc2ccccc2O)nc2ccccc21`, the inhibition was 1.8% (inactive). In the case of `Cc1cnc(NC(=O)C2CCCC2)s1`, the inhibition was -5.2% (inactive). With `CCN(CC)C(=O)CN(c1ccc(Cl)cc1)S(=O)(=O)c1ccccc1` the inhibition was 0.4% (inactive). With `Cc1nc(SCc2ccc(Br)cc2)[nH]c(=O)c1C` the inhibition was -1.2% (inactive). For `CCCCCCCCCCn1c2c(c(=N)c3c1CCC3)CCC2`, the inhibition was -24.6% (inactive). For `O=S(=O)(c1ccc(Cl)c(Cl)c1)c1snnc1-c1ccccc1`, the inhibition was 5.7% (inactive). In the case of `NCCN1CCN(CCN)CC1`, the inhibition was -3% (inactive). With `Cn1c(NCc2c[nH]c3ccccc23)nc2ccccc21` the inhibition was -13.6% (inactive). For `Cc1c(C(=O)N2CCN(c3ccccc3F)CC2)sc2ncn(CC(=O)N3CCOCC3)c(=O)c12`, the inhibition was -3.2% (inactive). For `CC(=O)Nc1nc2n(n1)C(c1ccc(F)cc1)C=C(c1ccccc1)N2` (stereo unspecified), the inhibition was 13.3% (inactive). For `O=C(OCn1ncc(Br)c(Br)c1=O)c1c(F)cccc1F`, the inhibition was -3.7% (inactive). For `CCC(=O)Nc1nc(-c2ccccc2)ns1`, the inhibition was -1.3% (inactive). For `O=C(COC(=O)C1(c2ccccc2F)CCCC1)NC1CCS(=O)(=O)C1` (stereo unspecified), the inhibition was -1% (inactive). In the case of `COc1ccc(Nc2cc(C(=O)NCCCN3CCOCC3)c3ccccc3n2)cc1OC`, the inhibition was 4.3% (inactive). In the case of `Cc1nnc(SCc2cn3ccsc3n2)n(N)c1=O`, the inhibition was -0.8% (inactive). In the case of `Cc1ccc(C)c(NC(=S)NC(NC(=O)Cc2cccc3ccccc23)C(Cl)(Cl)Cl)c1` (stereo unspecified), the inhibition was -16% (inactive). With `Nc1ccc2c3c(cccc13)CC2` the inhibition was -5.4% (inactive). With `CCCc1nnc(SCC(=O)O)n1/N=C/c1ccc2c(c1)OCO2` the inhibition was -4.9% (inactive). In the case of `CCOC(=O)N1CCC(NC(=O)c2ccc(CS(=O)(=O)c3ccc(OC)cc3)o2)CC1`, the inhibition was -7.4% (inactive). With `CNc1c([N+](=O)[O-])cnn1-c1ccc(Cl)cc1` the inhibition was -10.2% (inactive). With `CC/C(=N\NC(=O)CNC(=O)/C=C/c1ccco1)c1ccccc1` the inhibition was -9.3% (inactive). With `CCN(CC)S(=O)(=O)c1ccc(NC(=O)C(C)N(c2ccc(OC)cc2)S(C)(=O)=O)cc1` (stereo unspecified) the inhibition was -14.1% (inactive). For `Nc1c(C(=O)NC2CCCC2)c2nc3ccccc3nc2n1N`, the inhibition was -22.3% (inactive).
